Data set [1] has as its target T1, arginine vasopressin V2 receptor (Rattus norvegicus, UniProt Q00788).
T1 construct: A rat renal medullary membrane specimen was prepared; from tissue; host or cells: rat renal medulla (membrane specimen)
The data set can be described thus: V2 receptor binding assay ([3H]-vasopressin, rat renal medullary membrane specimen). As to conditions: [3H]-vasopressin 0.5 nM, read-out: Binding activity against arginine vasopressin V2 receptor (pKi) (converted). How it is done: (2) V2 Receptor Binding Assay:
A rat renal medullary membrane specimen was prepared according to the method of Cambell, et al. (Journal of Biological Chemistry, Vol. 247, No. 19, pp. 6167–6175, 1972). The rat renal medullary membrane specimen (200 μg) was treated together with [^3H]-vasopressin (0.5 nM, specific activity: 75 Ci/mmol) and a test compound (from 10^−10 to 10^−6 M) in the same manner as in the foregoing V1A receptor binding assay, and the same measurement was carried out to determine a pKi value.

The target in data set [2] is drug metabolizing enzyme CYP3A4 (Homo sapiens, UniProt P08684). The data set can be described thus: Cytochrome P450 (3A4) inhibition assay (BFC substrate, fluorescence). In kind it is in vitro ADME. Particulars: BFC 5×10^−5 M substrate, 37° C., 30 minutes; read-out: Inhibition activity against drug metabolizing enzyme CYP3A4 (IC50/μM). How it is done: (3) Cytochrome P450 (3A4) Inhibition Assay:
An assay was carried out according to the method of Crespi, et al. (Analytical Biochemistry, 248, 188–190, 1997). Using a 96-well plate, BFC (5×10^−5 M) as a substrate, a test compound (from 9.1×10^−8 to 2×10^−5 M), and an enzyme (10^−8 M) were incubated at 37° C. for 30 minutes in a total amount of 100 μL of a 20 mM phosphoric acid buffer solution (pH: 7.4) containing 1.3 mM NADP+, 3.3 mM glucose-6-pharpahte, 3.3 mM magnesium chloride, and 0.4 Units/mL glucose-6-phosphate dehydrogenase. Thereafter, a 100 mM TRIS buffer solution containing 80% acetonitrile was added to stop the reaction, and a fluorescent intensity (excitation wavelength: 409 nm, fluorescent wavelength: 530 nm) was measured by a fluorescent plate reader. An inhibition rate was calculated according to the following equation, and a concentration of the test compound at the inhibition rate of 50% (IC50 value) was determined. Inhibition rate (%)=[100−(C1−B1)]/(C0−B1)×100 C1: A fluorescent intensity in the presence of the test compound having a known concentration, enzyme and the substrate C0: A fluorescent intensity in the presence of enzyme and the substrate and in the absence of the test compound B1: A fluorescent intensity of the blank well

The target in data set [3] is T2, arginine vasopressin V1A receptor (Rattus norvegicus, UniProt P30560).
T2 construct: A rat hepatic membrane specimen was prepared; from tissue; host or cells: rat liver (hepatic membrane specimen)
Put plainly: V1A receptor binding assay ([3H]-vasopressin, rat hepatic membrane specimen). As to conditions: [3H]-vasopressin 0.5 nM, 25° C., 60 minutes, read-out: Binding activity against arginine vasopressin V1A receptor (pki) (converted). How it is done: (1) V1A Receptor Binding Assay:
A rat hepatic membrane specimen was prepared according to the method of Nakamura, et al. (Journal of Biological Chemistry, Vol. 258, No. 15, pp. 9283–9289, 1983). The hepatic membrane specimen (30 μg) was incubated at 25° C. for 60 minutes in a total amount of 250 μL of a 50 mM TRIS-HCl buffer solution (pH: 7.4) containing 10 mM magnesium chloride and 0.1% bovine serum albumin (BSA), together with [^3H]-Arg-vasopressin (hereinafter simply referred to as “[^3H]-vasopressin”) (0.5 nM, specific activity: 75 Ci/mmol) and a test compound (from 10^−10 to 10^−6 M). Thereafter, liberated [^3H]-vasopressin and receptor-binding [^3H]-vasopressin were separated from each other by using a cell harvester, and the receptor-binding [^3H]-vasopressin was adsorbed on a UniFilter plate, GF/B glass filter. After thoroughly drying, the receptor-binding [^3H]-vasopressin was mixed with a microplate scintillation cocktail, the amount of the receptor-binding [^3H]-vasopressin was measured by using TopCount, and an inhibition rate was calculated according to the following equation. Inhibition rate (%)=[100−(C1−B1)]/(C0−B1)×100 C1: An amount of [^3H]-vasopressin binding to the membrane specimen when treating the receptor membrane specimen in the co-presence of the test compound having a known concentration and [^3H]-vasopressin C0: An amount of [^3H]-vasopressin binding to the membrane specimen when treating the receptor membrane specimen in the presence of [^3H]-vasopressin and in the absence of the test compound B1: An amount of [^3H]-vasopressin binding to the membrane specimen when treating the receptor membrane specimen in the co-presence of [^3H]-vasopressin and an excessive amount of vasopressin (10^−6 M)
According to the foregoing equation, a concentration of the test compound at the inhibition rate of 50% (IC50 value) was calculated, from which was then calculated an affinity of the test compound with the receptor, i.e., a dissociation constant (Ki), according to the following equation. Ki=IC50/(1+[L]/Kd) [L]: A concentration of [^3H]-vasopressin Kd: A dissociation constant of [^3H]-vasopressin against the receptor as determined by the saturation binding assay
A logarithm of the Ki value as calculated according to the foregoing equation was taken, and its negative value was defined as a pKi value.

The results in this text go back to patent US7056910B2, “1,4,5.6-tetrahydroimidazo[4,5-d]diazepine derivatives or salts thereof” (Astellas Pharma Inc., priority 2000, dated 2006).

Structures can show the parent of a compound that is named as a salt.

T1 sequence (Q00788 whole entry): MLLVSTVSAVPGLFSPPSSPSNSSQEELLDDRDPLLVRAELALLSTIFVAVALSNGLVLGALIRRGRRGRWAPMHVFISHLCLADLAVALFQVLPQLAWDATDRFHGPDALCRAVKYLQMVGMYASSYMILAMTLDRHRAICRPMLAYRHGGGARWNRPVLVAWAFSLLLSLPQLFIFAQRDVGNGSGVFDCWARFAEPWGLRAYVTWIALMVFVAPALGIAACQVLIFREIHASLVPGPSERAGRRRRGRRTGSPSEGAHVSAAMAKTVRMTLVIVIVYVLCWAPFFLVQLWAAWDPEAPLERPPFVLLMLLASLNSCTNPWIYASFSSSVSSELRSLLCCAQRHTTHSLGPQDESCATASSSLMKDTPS
T2 sequence (P30560 whole entry): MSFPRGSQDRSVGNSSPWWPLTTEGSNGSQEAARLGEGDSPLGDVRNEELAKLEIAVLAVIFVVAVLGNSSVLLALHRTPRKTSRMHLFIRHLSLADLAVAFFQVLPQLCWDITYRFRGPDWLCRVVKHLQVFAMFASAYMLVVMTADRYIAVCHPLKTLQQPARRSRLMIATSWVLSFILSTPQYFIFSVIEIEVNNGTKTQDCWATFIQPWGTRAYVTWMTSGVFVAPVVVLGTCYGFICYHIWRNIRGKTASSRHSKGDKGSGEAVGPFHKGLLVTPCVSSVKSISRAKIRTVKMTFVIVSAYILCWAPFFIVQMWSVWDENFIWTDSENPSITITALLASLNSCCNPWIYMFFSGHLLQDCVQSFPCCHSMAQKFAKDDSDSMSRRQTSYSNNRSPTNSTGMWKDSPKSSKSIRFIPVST
Chain of drug metabolizing enzyme CYP3A4 (P08684 whole entry): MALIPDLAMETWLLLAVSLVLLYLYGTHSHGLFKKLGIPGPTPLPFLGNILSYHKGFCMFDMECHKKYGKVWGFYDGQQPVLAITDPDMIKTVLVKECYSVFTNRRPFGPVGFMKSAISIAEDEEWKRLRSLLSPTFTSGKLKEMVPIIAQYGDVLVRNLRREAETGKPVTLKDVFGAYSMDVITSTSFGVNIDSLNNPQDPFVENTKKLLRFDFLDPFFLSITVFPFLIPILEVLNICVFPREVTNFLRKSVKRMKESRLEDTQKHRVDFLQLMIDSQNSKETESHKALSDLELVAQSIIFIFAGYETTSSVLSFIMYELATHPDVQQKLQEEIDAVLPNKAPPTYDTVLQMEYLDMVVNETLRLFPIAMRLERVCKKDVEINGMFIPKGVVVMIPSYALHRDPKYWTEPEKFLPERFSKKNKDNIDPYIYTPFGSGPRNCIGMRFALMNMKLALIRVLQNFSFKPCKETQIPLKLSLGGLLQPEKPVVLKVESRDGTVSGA

Regarding `O=C(Nc1ccc(C(=O)N2CCc3nc(Cc4ccccc4)[nH]c3-c3ccccc32)cc1)c1ccccc1-c1ccccc1` [Control compound 1, N-[4-(2-Benzyl-1,4,5,6-tetrahydroimidazo[4 5-d] [1]benzazepine-6-carbonyl)phenyl]biphenyl-2-carboxamide hydrochloride, reference compound], the Ki in data set [1] is 8.51 nM; in data set [3], 7.76 nM. Further, the IC50 in data set [2] stood at 0.21 µM.

With `O=C(Nc1ccc(C(=O)N2CCc3nc(-c4ccccn4)[nH]c3-c3ccccc32)nc1)c1ccccc1-c1ccccc1` [Example 11, N-{6-[2-(2-pyridyl)-1,4,5,6-tetrahydroimidazo[4,5-d][1]benzazepine-6-carbonyl]-3-pyridyl}biphenyl-2-carboxamide], the Ki in data set [1] was 12.3 nM; in data set [3] it was 1.95 nM. In data set [2], the IC50 was 2 µM.

Regarding `O=C(Nc1ccc(C(=O)N2CCc3nc(-c4ccccn4)[nH]c3-c3ccccc32)cc1)c1ccccc1-c1ccccc1F` [Example 9, 2′-fluoro-N-{4-[2-(2-pyridyl)-1,4,5,6-tetrahydroimidazo[4,5-d][1]benzazepine-6-carbonyl]phenyl}biphenyl-2-carboxamide], the Ki in data set [1] is 10.5 nM; in data set [3] it was 3.8 nM. Besides, the IC50 in data set [2] came out at 2.4 µM.

As to `O=C(Nc1ccc(C(=O)N2CCc3nc(C4CC4)[nH]c3-c3ccccc32)cc1)c1ccccc1-c1ccccc1` [Control compound 2, N-[4(2-Cyclopropyl-1,4,5,6-tetrahydroimidazo[4,5-d] [1]benzazepine-6-carbonyl)phenyl]biphenyl-2-carboxamide hydrochloride, reference compound], the Ki was 1.05 nM in data set [1] and 1.23 nM in data set [3]. Besides, in data set [2], the IC50 stood at 0.43 µM.

For `O=C(Nc1ccc(C(=O)N2CCc3nc(-c4ccccn4)[nH]c3-c3ccccc32)cc1O)c1ccccc1-c1ccccc1` [Example 12, N-{2-Hydroxy-4-[2-(2-pyridyl)-1,4,5,6-tetrahydroimidazo[4,5-d][1]-benzazepine-6-carbonyl]phenyl}biphenyl-2-carboxamide hydrochloride], the results for the Ki in data set [1] and in data set [3] were 28.8 nM and 7.59 nM, respectively. Besides, the IC50 in data set [2] came to 5.9 µM.

By melting point is commonly meant the temperature of the solid-liquid transition. In the case of `O=C(Nc1ccc(C(=O)N2CCc3nc(-c4ccccn4)[nH]c3-c3ccccc32)cc1)c1ccccc1-c1ccccc1` [Example 6, N-{4-[2-(2-Pyridyl)-1,4,5,6-tetrahydroimidazo[4,5-d][1]benzazepine-6-carbonyl]phenyl}biphenyl-2-carboxamide], the melting point is 240 to 242 °C.

Regarding `O=C(Nc1ccc(C(=O)N2CCc3nc(-c4ccccn4)[nH]c3-c3ccccc32)cc1)c1ccccc1-c1ccccc1` [Example 1, N-{4-[2-(2-Pyridyl)-1,4,5,6-tetrahydroimidazo[4,5-d][1]benzazepine-6-carbonyl]phenyl}biphenyl-2-carboxamide hydrochloride], the Ki in data set [1] was 6.03 nM; in data set [3] it was 2.82 nM. Moreover, the IC50 in data set [2] was found to be 7.82 µM.
